Reference: ChEMBL document CHEMBL1126231, “Synthesis and phototoxicity of a series of haematoporphyrin analogues” (1992)

Assays:
[1] = In vivo localization capacities at 24 hr post injection in a mouse C6 intracerebral glioma model and the tumor; normal brain ratio was calculated; format: functional
[2] = In vivo localization capacities at 6 hr post injection in a mouse C6 intracerebral glioma model and the tumor; normal brain ratio was calculated; format: functional

SMILES	Ratio [1]	Ratio [2]
CCOC(C)C1=C(C)c2cc3[nH]c(cc4[nH]c(cc5nc(cc1n2)C(C)=C5C(C)OCC)c(C)c4CCC(=O)O)c(CCC(=O)O)c3C (stereo not given)	8.7	17.5
CCOCCOC(C)C1=C(C)c2cc3[nH]c(cc4[nH]c(cc5nc(cc1n2)C(C)=C5C(C)OCCOCC)c(C)c4CCC(=O)NCCN(C)C)c(CCC(=O)NCCN(C)C)c3C (stereo not given)	8	15.2
CC1=C(C(C)SCC(=O)O)c2cc3nc(cc4[nH]c(cc5[nH]c(cc1n2)c(C)c5CCC(=O)O)c(CCC(=O)O)c4C)C(C(C)SCC(=O)O)=C3C (stereo not given)	28.2	23
CCOC(C)C1=C(C)c2cc3[nH]c(cc4[nH]c(cc5nc(cc1n2)C(C)=C5C(C)OCC)c(C)c4CCC(=O)NCCN(C)C)c(CCC(=O)NCCN(C)C)c3C (stereo not given)	6.4	2.4
CCOCCOC(C)C1=C(C)c2cc3[nH]c(cc4[nH]c(cc5nc(cc1n2)C(C)=C5C(C)OCCOCC)c(C)c4CCC(=O)O)c(CCC(=O)O)c3C (stereo not given)	25.1	37.7
